Assays:
Mouse = assay: Four Plate Test, Mouse; assay type: in vivo; conditions: for Number of Punished Crossings % Change: change from vehicle control
Description: The Four Plate assay was run according to the procedure as described by Aron et al (Neuropharmacology, 10, 459-469, 1971). In this assay, the rodent experiences an electric shock upon crossing from one plate to another. Anxiolytics (such as benzodiazepines) increase the number of punished crossings.
Animals were placed individually in a white plastic enclosure containing a floor consisting of 4 metal plates connected to an electric shock generator (Apelex : Type 011346). The mouse was left to explore freely for 15 seconds. Then, every time the mouse crossed from one plate to another, it received a weak electric shock (2.5 mA, 1.5 s). The number of punished crossings were counted during a 1 minute test. Ten (10) mice were used for each study group. The test was performed blind.
(§1) Compound #8 was evaluated at 30 mg/kg, 60 mg/kg and 120 mg/kg doses, administered p.o. 60 minutes before the test, and compared with a vehicle control group. Compound #8 was homogenized and dispersed using a mortar and a pestle in 0.2% hydroxypropylmethylcellulose (HPMC) in distilled water, which served as the vehicle. As a positive control, Clobazam (32 mg/kg p.o.), was administered under the same experimental conditions. Clobazam as URBANYL®tablets (32 mg/kg p.o.) were dispersed in 0.2% hydroxypropylmethylcellulose (HPMC) in distilled water for administration. Each experiment therefore included 5 study groups of 10 mice each.
Data were analyzed by comparing groups treated with compound #8 with groups treated with vehicle control using unpaired Student's t tests. Table 5: Effect of Compound #8 in Four Plate

Male Rj:NMRI mice = assay: Elevated Plus Maze, Mouse (EPM); assay type: in vivo; conditions: for Closed Arms Number of Entries % change / Open Arms Number of Entries % change / Open Arms Time Spent (sec) % change: change from vehicle control
Description: Rodents avoid open spaces (in the case of the assay apparatus, the open arms of an elevated plus-maze). Compounds which have anti-anxiety activity increase exploratory activity of the rodents in the open arms of the elevated plus-maze. The EPM assay was run according to the procedure as described by Handley and Mithani (Naunyn. Schmied. Arch. Pharmacol., 327, 1-5, 1984).
Male Rj:NMRI mice, weighing 20 - 30 g (max. range per experiment = 5 g) at the beginning of the experiments, were obtained from Elevage Janvier, 53940 Le Genest-Saint-Isle, France and used in the assay. The animals were delivered to the laboratory at least 5 days before the experiments during which time they were acclimatized to laboratory conditions. The mice were housed in groups of 10 in Macrolon cages (25 x 19 x 13 cm) on wood litter (Litalabo-SPPS, 95100 Argenteuil, France) with free access to food (Code 113 - SAFE, 89290 Augy, France) and water until tested (or as indicated otherwise). The animal house was maintained under artificial lighting (12 hours) between 7:00 and 19:00 in a controlled ambient temperature of 21 ± 3°C, and relative humidity between 30-80%.
The elevated plus-maze consisted of 4 arms of equal length and width (14 x 5 cm) arranged in the form of a plus sign (+). Two opposite arms were enclosed by 12 cm high walls (closed arms). The 2 other arms had no walls (open arms). The maze was raised 56 cm above the floor. A mouse was placed in the centre of the plus-maze and left to explore the maze for 5 minutes. The number of entries into the open and closed arms and the time spent in the open arms was recorded. Ten (10) mice were used for each study group. The test was performed blind.
as §1, with “(16” for “(32”
Data were analyzed by comparing groups treated with compound #8 with groups treated with vehicle control using unpaired Student's t tests. Table 4: Effect of Compound #8 in EPM

[1] = 30 mg/kg p.o. 60 minutes before the test
[2] = 60 mg/kg p.o. 60 minutes before the test
[3] = 120 mg/kg p.o. 60 minutes before the test
[4] = 30 mg/kg p.o. 60 minutes before the test, 5 minutes in maze, t test vs vehicle (NS)
[5] = 60 mg/kg p.o. 60 minutes before the test, 5 minutes in maze, t test vs vehicle p < 0.01
[6] = 120 mg/kg p.o. 60 minutes before the test, 5 minutes in maze, t test vs vehicle p < 0.05
[7] = 16 mg/kg p.o., positive control, same experimental conditions, t test vs vehicle p < 0.001
[8] = 16 mg/kg p.o., positive control

SMILES: NS(=O)(=O)NC[C@H]1COc2cc(Cl)ccc2O1 [Compound #8, (2S)-(-)-N-(6-Chloro-2,3-dihydro-benzo[1,4]dioxin-2-ylmethyl)-sulfamide]
- Number of Punished Crossings Mean ± S.E.M. (Mouse; 30 mg/kg p.o. 60 minutes before the test, 1 minute test, t test vs vehicle (NS)): 4.5 ± 0.6 (NS)
- Number of Punished Crossings % Change (Mouse; [1]): +15%
- Number of Punished Crossings Mean ± S.E.M. (Mouse; 60 mg/kg p.o. 60 minutes before the test, 1 minute test, t test vs vehicle (NS)): 4.5 ± 0.3 (NS)
- Number of Punished Crossings % Change (Mouse; [2]): +15%
- Number of Punished Crossings Mean ± S.E.M. (Mouse; 120 mg/kg p.o. 60 minutes before the test, 1 minute test, t test vs vehicle p < 0.01): 6.6 ± 0.6 (**)
- Number of Punished Crossings % Change (Mouse; [3]): +69%
- Closed Arms Number of Entries Mean ± S.E.M. (Male Rj:NMRI mice; [4]): 8.5 ± 0.9 (NS)
- Open Arms Number of Entries Mean ± S.E.M. (Male Rj:NMRI mice; [4]): 3.9 ±0.7 (NS)
- Open Arms Time Spent (sec) Mean ± S.E.M. (Male Rj:NMRI mice; 30 mg/kg p.o. 60 minutes before the test, 5 minutes in maze, t test vs vehicle p < 0.01): 44.6 ± 8.0 s
- Closed Arms Number of Entries % change (Male Rj:NMRI mice; [1]): +13%
- Open Arms Number of Entries % change (Male Rj:NMRI mice; [1]): +50%
- Open Arms Time Spent (sec) % change (Male Rj:NMRI mice; [1]): +148%
- Closed Arms Number of Entries Mean ± S.E.M. (Male Rj:NMRI mice; [5]): 10.3 ± 0.8 (**)
- Open Arms Number of Entries Mean ± S.E.M. (Male Rj:NMRI mice; [5]): 5.9 ± 1.0 (**)
- Open Arms Time Spent (sec) Mean ± S.E.M. (Male Rj:NMRI mice; [5]): 54.1 ± 10.6 s
- Closed Arms Number of Entries % change (Male Rj:NMRI mice; [2]): +37%
- Open Arms Number of Entries % change (Male Rj:NMRI mice; [2]): +127%
- Open Arms Time Spent (sec) % change (Male Rj:NMRI mice; [2]): +201%
- Open Arms Time Spent (sec) Mean ± S.E.M. (Male Rj:NMRI mice; 120 mg/kg p.o. 60 minutes before the test, 5 minutes in maze, t test vs vehicle p < 0.01): 38.6 ± 5.2 s
- Closed Arms Number of Entries Mean ± S.E.M. (Male Rj:NMRI mice; [6]): 10.0 ± 1.1 (*)
- Open Arms Number of Entries Mean ± S.E.M. (Male Rj:NMRI mice; [6]): 4.5 ± 0.6 (*)
- Closed Arms Number of Entries % change (Male Rj:NMRI mice; [3]): +33%
- Open Arms Number of Entries % change (Male Rj:NMRI mice; [3]): +73%
- Open Arms Time Spent (sec) % change (Male Rj:NMRI mice; [3]): +114%

SMILES: CN1C(=O)CC(=O)N(c2ccccc2)c2cc(Cl)ccc21 [CLOBAZAM, Clobazam, reference compound]
- Number of Punished Crossings Mean ± S.E.M. (Mouse; 32 mg/kg p.o., positive control, same experimental conditions, t test vs vehicle p < 0.001): 9.9 ± 1.2 (***)
- Open Arms Number of Entries Mean ± S.E.M. (Male Rj:NMRI mice; [7]): 11.7 ± 1.1 (***)
- Open Arms Time Spent (sec) Mean ± S.E.M. (Male Rj:NMRI mice; [7]): 120.1 ± 13.1 s
- Closed Arms Number of Entries Mean ± S.E.M. (Male Rj:NMRI mice; 16 mg/kg p.o., positive control, same experimental conditions, t test vs vehicle p < 0.05): 11.9 ± 1.5 (*)
- Closed Arms Number of Entries % change (Male Rj:NMRI mice; [8]): +59%
- Open Arms Number of Entries % change (Male Rj:NMRI mice; [8]): +350%
- Open Arms Time Spent (sec) % change (Male Rj:NMRI mice; [8]): +567%
